Results on two molecules are retold here after patent US4481193A, “Des-proline vasopressin antagonists” (SmithKline Beckman Corporation, priority 1984, dated 1984).

*1 amine or outer side, *2 acyl side, *3 side chain or, on linkers, in order; H or OH if unused. Where a SMILES comes first, the peptide text is derived from it. Bridges are numbered along the chain shown (N, C = ends). [ ]: non-standard residue; d: D form. X1 = O=C(CC1(S[*:2])CCCCC1)[*:1]

In one test the test system is hydropenic rat. Description: Hydropenic rat screen (anti-ADH activity in vivo). As to conditions: estimated dose delivered ip which reduces Uosm from hydropenic levels to 300 mOsmoles/kg H2O; male rats. The protocol:
(§1) Antagonistic activity toward the natural antidiuretic hormone (anti-ADH activity) is determined, in vitro, in the medullary tissue of hog or human kidneys and, in vivo, in the hydropenic rat. The in vitro assay procedures for vasopressin stimulated adenylate cyclase activation or vasopression binding activity are described by F. Stassen et al., J. Pharmacology and Experimental Therapeutics, 223, 50-54 (1982).
The assay for anti-ADH activity is the hydropenic rat protocol is described below:
Food and water are removed from male rats approximately 18 hours prior to testing. Animals are housed 4 per metabolism cage. At 0 hour, the test compound is administered intraperitoneally to the test group and an equivalent volume of vehicle is administered to both control groups (fasted and non-fasted). Urine volume and osmolality are measured every hour for 4 hours. Test values are recorded as ml of urine excreted (cumulative), mEq/rat electrolyte excreted, mg/rat urea excreted, and osmolality in milli-Osmoles/kg H2 O. A tolerance test is used to determine significance. ED300 is defined as the dose of compound (μg/kg) required to lower urine osmolality to 300 m-Osmoles/kg.

For test [1], the target named is T1, vasopressin stimulated adenylate cyclase (Homo sapiens, UniProt P30518).
T1 construct: from tissue; host or cells: human kidney medullary membranes
Description: Vasopressin stimulated adenylate cyclase activity, human kidney medullary tissue. Format: biochemical. The settings on record: read-out: In Vitro (Human) Ki. The protocol:
as §1

For test [2], the target named is T2, vasopressin receptors (V2 -receptors) (Sus scrofa, UniProt P32307).
T2 construct: from tissue; host or cells: hog kidney medullary membranes
Description: 3H-vasopressin binding assay, hog kidney membranes. The settings on record: competitive inhibition of 3H-vasopressin binding, KB = IC50/(1+L/KD), read-out: In Vitro (Pig) KB. The protocol: as §1
In the test procedure for binding assays, the amount of ^3 H-vasopressin bound in the absence and in the presence of an excess of vasopressin (7.5×10^-6 M) is measured in triplicate. These values represent total and non-specific binding, respectively. […] This is the average KD value determined on 3 preparations of hog kidney membranes.

Test [3] deals with T3, vasopressin stimulated adenylate cyclase (Sus scrofa, UniProt P32307).
T3 construct: from tissue; host or cells: hog kidney medullary membranes
Nature of the test: Vasopressin stimulated adenylate cyclase activity, hog kidney medullary membrane. The test is classed as biochemical. The settings on record: antagonism of vasopressin stimulated adenylate cyclase, read-out: In Vitro (Pig) Ki. As for the experimental part:
as §1
In the test procedure for assay of adenylate cyclase activity, the amount of ^32 P/cAMP formed in the absence of medullary membrane is determined (blank). The blank value is substracted from all experimental data. The compound is tested for its effect on basal adenylate cyclase activity and/or on vasopressin stimulated activity. Each determination is carried out in triplicate. The Ka value is derived from a Lineweaver-Burkeplot. Rel. Vmax =(Vmax drug/Vmax vasopressin)×100. Ki =I/[Ka'/Ka)-1] where I is the concentration of the antagonist, and Ka' and Ka are the concentrations of vasopressin required to give half-maximal activity of adenylate cyclase in the presence and absence of antagonist, respectively.

T1 sequence (P30518 whole entry): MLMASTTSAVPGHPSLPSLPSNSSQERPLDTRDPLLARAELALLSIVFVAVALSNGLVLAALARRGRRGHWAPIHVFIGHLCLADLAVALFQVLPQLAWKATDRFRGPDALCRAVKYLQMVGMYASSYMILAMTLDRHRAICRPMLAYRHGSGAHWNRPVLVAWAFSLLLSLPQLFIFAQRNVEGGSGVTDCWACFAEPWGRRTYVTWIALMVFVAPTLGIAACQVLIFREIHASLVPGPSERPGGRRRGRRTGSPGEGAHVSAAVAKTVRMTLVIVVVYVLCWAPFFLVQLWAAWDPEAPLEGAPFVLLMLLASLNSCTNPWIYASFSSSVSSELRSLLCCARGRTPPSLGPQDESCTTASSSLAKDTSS
T2 sequence (P32307 whole entry): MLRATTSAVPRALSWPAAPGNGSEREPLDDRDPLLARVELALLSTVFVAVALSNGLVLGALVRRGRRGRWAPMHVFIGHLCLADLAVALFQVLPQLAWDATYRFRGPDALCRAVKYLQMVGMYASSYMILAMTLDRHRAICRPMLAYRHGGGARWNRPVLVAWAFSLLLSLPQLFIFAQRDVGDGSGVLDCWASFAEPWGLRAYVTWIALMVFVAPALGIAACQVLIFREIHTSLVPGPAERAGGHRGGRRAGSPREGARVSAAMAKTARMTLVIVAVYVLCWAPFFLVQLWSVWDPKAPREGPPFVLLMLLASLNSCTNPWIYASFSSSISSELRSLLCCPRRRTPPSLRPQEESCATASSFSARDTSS
T3 sequence (P32307 whole entry): as above

Turning to `CCOc1ccc(C[C@H]2NC(=O)CC3(CCCCC3)SSC[C@@H](C(=O)N3CCC[C@H]3C(=O)N[C@@H](CCCNC(=N)N)C(=O)NCC(N)=O)NC(=O)[C@H](CC(N)=O)NC(=O)[C@H](C(C)C)NC(=O)[C@H](Cc3ccccc3)NC2=O)cc1` [B, [mercapto-β,cyclopentamethylenepropionic acid)2-(O--ethylD-tyrosine)-4-valine-8-argininevasopressin] ([dY](Et)FVNCPRG-NH2; linker N-5 via X1 (inferred); C-terminus assumed), the “In Vivo (Rat) ED300” value in the test with hydropenic rat was 0.011 mg/kg.

The term Ki denotes a measure of affinity in units of concentration, obtained from inhibition or displacement. Consider `CCOc1ccc(C[C@H]2NC(=O)CC3(CCCCC3)SSC[C@@H](C(=O)N[C@@H](CCCN=C(N)N)C(=O)NCC(N)=O)NC(=O)[C@H](CC(N)=O)NC(=O)[C@H](C(C)C)NC(=O)[C@H](Cc3ccccc3)NC2=O)cc1` [A] ([dY](Et)FVNCRG-NH2; linker N-5 via X1), for which the inhibitory constant (Ki) in test [1] is 9.8 nM; in test [3], 2.7 nM. Also, the Kb in test [2] worked out at 17 nM.
